Toxic doses and inconclusive results are not listed.
System: L1210 leukemia ip in BDF1 mice, survival T/C
Experiment: NCI In Vivo Anticancer Drug Screen. Data for tumor model L1210 Leukemia (intraperitoneal) in B6D2F1 (BDF1) mice
Settings: higher = longer survival
Procedure, shortened: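 In this screen, tumor-bearing mice given compound are compared to those given vehicle, and their survival values are reported as a treated-to-control quotient.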

[1] = endpoint: mean survival time, dose: 100.0 mg/kg/injection, schedule: Q04DX003 (ip), vehicle: saline with Tween-80
[2] = endpoint: mean survival time, dose: 200.0 mg/kg/injection, schedule: Q04DX003 (ip), vehicle: saline with Tween-80

CCC(O)Cc1c[nH]c(=O)[nH]c1=O (stereo unspecified)
T/C (endpoint: mean survival time, dose: 50.0 mg/kg/injection, schedule: Q01DX009 (ip), vehicle: saline): 93 % of control | T/C (endpoint: mean survival time, dose: 100.0 mg/kg/injection, schedule: Q01DX009 (ip), vehicle: saline): 98 % of control | T/C [1]: 94 % of control | T/C [2]: 94 % of control

Cc1ccc(NC2CNC(=O)NC2=O)cc1 (stereo unspecified)
T/C (endpoint: mean survival time, dose: 100.0 mg/kg/injection, schedule: Q01DX Z (ip), vehicle: methylcellulose (MC)): 100 % of control | T/C (endpoint: mean survival time, dose: 200.0 mg/kg/injection, schedule: Q01DX Z (ip), vehicle: methylcellulose (MC)): 93 % of control

CN(C)c1ccc2c(c1)Cc1cc(NC(=O)/C=C/C(=O)O)ccc1-2
T/C (endpoint: mean survival time, dose: 100.0 mg/kg/injection, schedule: Q04DX003 (ip), vehicle: saline): 112 % of control | T/C (endpoint: mean survival time, dose: 200.0 mg/kg/injection, schedule: Q04DX003 (ip), vehicle: saline): 93 % of control | T/C (endpoint: mean survival time, dose: 400.0 mg/kg/injection, schedule: Q04DX003 (ip), vehicle: saline): 91 % of control

COC(=O)C(Cc1ccc(N(CCCl)CCCl)cc1)N=NNc1nc[nH]c1C(N)=O (stereo unspecified)
T/C (endpoint: mean survival time, dose: 11.0 mg/kg/injection, schedule: Q03HX024 (ip), vehicle: other): 150 % of control | T/C (endpoint: mean survival time, dose: 17.0 mg/kg/injection, schedule: Q03HX024 (ip), vehicle: other): 176 % of control | T/C (endpoint: mean survival time, dose: 25.0 mg/kg/injection, schedule: Q03HX024 (ip), vehicle: other): 157 % of control | T/C (endpoint: mean survival time, dose: 38.0 mg/kg/injection, schedule: Q01DX009 (ip), vehicle: other): 152 % of control | T/C (endpoint: mean survival time, dose: 56.0 mg/kg/injection, schedule: Q01DX009 (ip), vehicle: other): 114 % of control | T/C (endpoint: mean survival time, dose: 88.0 mg/kg/injection, schedule: Q04DX003 (ip), vehicle: other): 166 % of control | T/C (endpoint: mean survival time, dose: 134.0 mg/kg/injection, schedule: Q04DX003 (ip), vehicle: other): 160 % of control | T/C (endpoint: mean survival time, dose: 200.0 mg/kg/injection, schedule: Q01DX001 (ip), vehicle: carboxymethylcellulose (CMC)): 161 % of control | T/C (endpoint: mean survival time, dose: 200.0 mg/kg/injection, schedule: Q04DX003 (ip), vehicle: other): 103 % of control | T/C (endpoint: mean survival time, dose: 300.0 mg/kg/injection, schedule: Q01DX001 (ip), vehicle: carboxymethylcellulose (CMC)): 181 % of control | T/C (endpoint: mean survival time, dose: 375.0 mg/kg/injection, schedule: Q01DX001 (ip), vehicle: carboxymethylcellulose (CMC)): 151 % of control | T/C (endpoint: median survival time, dose: 12.5 mg/kg/injection, schedule: Q01DX009 (ip), vehicle: steriod suspending solution): 122 % of control | T/C (endpoint: median survival time, dose: 50.0 mg/kg/injection, schedule: Q01DX009 (ip), vehicle: steriod suspending solution): 105 % of control | T/C (endpoint: median survival time, dose: 100.0 mg/kg/injection, schedule: Q01DX009 (ip), vehicle: steriod suspending solution): 88 % of control

O=C(Nc1ccccc1)N(C1CCCCC1)C1CCCCC1
T/C (endpoint: mean survival time, dose: 100.0 mg/kg/injection, schedule: Q01DX009 (ip), vehicle: Klucel (hydroxypropylcellulose) (HPC)): 86 % of control | T/C (endpoint: mean survival time, dose: 200.0 mg/kg/injection, schedule: Q01DX009 (ip), vehicle: Klucel (hydroxypropylcellulose) (HPC)): 88 % of control | T/C (endpoint: mean survival time, dose: 400.0 mg/kg/injection, schedule: Q01DX009 (ip), vehicle: Klucel (hydroxypropylcellulose) (HPC)): 89 % of control

COc1ccccc1NC(N)=O
T/C [1]: 98 % of control | T/C [2]: 107 % of control | T/C (endpoint: mean survival time, dose: 400.0 mg/kg/injection, schedule: Q04DX003 (ip), vehicle: saline with Tween-80): 98 % of control

COc1ccccc1OCC(O)COc1ccccc1OC
T/C (endpoint: mean survival time, dose: 12.5 mg/kg/injection, schedule: Q01DX009 (ip), vehicle: saline with Tween-80): 92 % of control | T/C (endpoint: mean survival time, dose: 12.5 mg/kg/injection, schedule: Q04DX003 (ip), vehicle: saline): 106 % of control | T/C (endpoint: mean survival time, dose: 25.0 mg/kg/injection, schedule: Q01DX009 (ip), vehicle: saline with Tween-80): 95 % of control | T/C (endpoint: mean survival time, dose: 25.0 mg/kg/injection, schedule: Q04DX003 (ip), vehicle: saline): 105 % of control | T/C (endpoint: mean survival time, dose: 50.0 mg/kg/injection, schedule: Q01DX009 (ip), vehicle: saline with Tween-80): 94 % of control | T/C (endpoint: mean survival time, dose: 50.0 mg/kg/injection, schedule: Q04DX003 (ip), vehicle: saline): 105 % of control | T/C (endpoint: mean survival time, dose: 100.0 mg/kg/injection, schedule: Q01DX001 (ip), vehicle: saline): 104 % of control | T/C (endpoint: mean survival time, dose: 200.0 mg/kg/injection, schedule: Q01DX001 (ip), vehicle: saline): 100 % of control | T/C (endpoint: mean survival time, dose: 400.0 mg/kg/injection, schedule: Q01DX001 (ip), vehicle: saline): 102 % of control

Cc1ccc(S(=O)(=O)c2ccc(Cl)cc2)cc1
T/C (endpoint: mean survival time, dose: 100.0 mg/kg/injection, schedule: Q04DX003 (ip), vehicle: acetone): 110 % of control | T/C (endpoint: mean survival time, dose: 200.0 mg/kg/injection, schedule: Q04DX003 (ip), vehicle: acetone): 110 % of control | T/C (endpoint: mean survival time, dose: 400.0 mg/kg/injection, schedule: Q04DX003 (ip), vehicle: acetone): 109 % of control

From PubChem BioAssay AID248 (DTP/NCI, 2004)
